According to US20260200888A1, “BIO-BASED COMPOUNDS” (SPECIALTY OPERATIONS FRANCE, priority 2022, published 2026):

What was measured:
[1] = Solubility of mono-fungicides in the solvent of Example 6 and prior art solvents (Example 7); settings: 24° C.; for Maximum solubility (w/v) in Cyrene: solvent Cyrene; for Maximum solubility (w/v) in Example 6: solvent Example 6; for Maximum solubility (w/v) in Rhodiasolv ADMA10: solvent Rhodiasolv ADMA10
[2] = Solubility of mono-fungicides in the solvent of Example 1 and prior art solvents (Example 2); settings: for Maximum solubility (w/v) in Cyrene: solvent Cyrene; for Maximum solubility (w/v) in Example 1: solvent Example 1; for Maximum solubility (w/v) in Rhodiasolv ADMA10: solvent Rhodiasolv ADMA10; for Maximum solubility (w/v) in Rhodiasolv PolarClean: solvent Rhodiasolv PolarClean
Excerpt: The concentration of the fungicides (w/v) was increased in 5% intervals and the highest still soluble concentration is stated in the table below.

[3] = in Cyrene and NBP
[4] = 24° C., 5% intervals, highest still soluble concentration

SMILES | Maximum solubility (w/v) in Cyrene [1] | Maximum solubility (w/v) in Example 6 [1] | Maximum solubility (w/v) in Rhodiasolv ADMA10 [1] | Maximum solubility (w/v) in Cyrene ([2]; 0° C. after seeding) | Maximum solubility (w/v) in Cyrene ([2]; 24° C.) | Maximum solubility (w/v) in Example 1 ([2]; 0° C. after seeding) | Maximum solubility (w/v) in Example 1 [2, 4] | Maximum solubility (w/v) in Rhodiasolv ADMA10 ([2]; 0° C. after seeding) | Maximum solubility (w/v) in Rhodiasolv ADMA10 ([2]; 24° C.) | Maximum solubility (w/v) in Rhodiasolv PolarClean ([2]; 0° C. after seeding) | Maximum solubility (w/v) in Rhodiasolv PolarClean ([2]; 24° C.) | Viscosity of the resulting NBPT solution ([3]; even at 35% (w/v)) | Appearance of the NBPT solution ([3]; even at low concentrations)
COC(=O)N(OC)c1ccccc1COc1ccn(-c2ccc(Cl)cc2)n1 [Pyraclostrobin] | 45% (w/v) | >25% (w/v) | 15% (w/v) | 45% (45%) % (w/v) | 45% (45%) % (w/v) | 45% (45%) % (w/v) | 45% (45%) % (w/v) | (10) % (w/v) | 15% (w/v) | (45%) % (w/v) | 45% (w/v) |  | 
CC(C)N(C)S(=O)(=O)NC(=O)c1cc(-n2c(=O)cc(C(F)(F)F)n(C)c2=O)c(F)cc1Cl [Saflufenacil] | 10% (w/v) | >10% (w/v) | 10% (w/v) | 10% (10%) % (w/v) | 10% (10%) % (w/v) | 20% (20%) % (w/v) | 20% (20%) % (w/v) | (10%) % (w/v) | 10% (w/v) | (25%) % (w/v) | 25% (w/v) |  | 
CO/C=C(/C(=O)OC)c1ccccc1Oc1cc(Oc2ccccc2C#N)ncn1 [Azoxystrobin] | 20% (w/v) | 10% (w/v) | 2% (w/v) | 20% (20%) % (w/v) | 20% (20%) % (w/v) | 10% (10%) % (w/v) | 10% (10%) % (w/v) | (2%) % (w/v) | 2% (w/v) | (5%) % (w/v) | 15% (w/v) |  | 
CCCCNP(N)(N)=S [NBPT, N-(n-butyl)thiophosphoric triamide] |  |  |  |  |  |  |  |  |  |  |  | highly viscous | yellow discoloration
OC(Cc1ccccc1Cl)(Cn1nc[nH]c1=S)C1(Cl)CC1 (stereo not drawn) [Prothioconazole] | 10% (w/v) | >30% (w/v) | 40% (w/v) | 10% (10%) % (w/v) | 10% (10%) % (w/v) | 50% (50%) % (w/v) | 50% (50%) % (w/v) | (40%) % (w/v) | 40% (w/v) | (50%) % (w/v) | 50% (w/v) |  | 
CC(C)(C)C(O)(CCc1ccc(Cl)cc1)Cn1cncn1 (stereo not drawn) [Tebuconazole] |  |  |  |  |  |  |  | (20%) % (w/v) |  | (30%) % (w/v) |  |  | 
